Data reported in paper PMC7429951 (Journal of Medicinal Chemistry, 2020).

Key:
MMP-3 = MMP-3 (Homo sapiens, UniProt P08254); test: MMP-3 off-target inhibition; assay type: biochemical; conditions: read-out: MMP-3 % inhibition @ 100 μM; 100 μM compound
Description: (§1) Previously, we described N-aryl mercaptoacetamides with high selectivity for the bacterial over a broad range of human MMPs.[29],[30] MMPs are calcium-dependent zinc metalloproteases that play a pivotal role in numerous biochemical processes in humans.[39],[40] Based on the depth of their S1′ binding pocket, MMPs can be divided into three classes: deep (e.g., MMP-3 and -14), intermediate (e.g., MMP-2 and -8), and shallow (e.g., MMP-1 and -7). With the aim to explore the interactions of our inhibitors with all three pocket types, which could help us to assess potential effects on other not-tested representatives, we chose a panel of six MMPs, comprising two members of each class. In addition, HDAC-3, HDAC-8, and TACE (ADAM-17)—enzymes involved in gene expression and the processing of TNF-α,[41],[42] respectively—were selected as important additional human off-targets.

in vitro = conditions: human, HEK293 cells (embryonal kidney)
[1] = biological target: collagenase unit of ColG (ColG-CU) (Hathewaya histolytica, UniProt Q9X721); test: biochemical; parameters: species or system C. histolyticum; conditions: read-out: ColG-CU % inhibition @ 100 μM
MMP-2 = biological target: T1, MMP-2 (Homo sapiens, UniProt P08253); test: MMP-2 off-target inhibition; assay type: biochemical
T1 sequence (P08253 110-660): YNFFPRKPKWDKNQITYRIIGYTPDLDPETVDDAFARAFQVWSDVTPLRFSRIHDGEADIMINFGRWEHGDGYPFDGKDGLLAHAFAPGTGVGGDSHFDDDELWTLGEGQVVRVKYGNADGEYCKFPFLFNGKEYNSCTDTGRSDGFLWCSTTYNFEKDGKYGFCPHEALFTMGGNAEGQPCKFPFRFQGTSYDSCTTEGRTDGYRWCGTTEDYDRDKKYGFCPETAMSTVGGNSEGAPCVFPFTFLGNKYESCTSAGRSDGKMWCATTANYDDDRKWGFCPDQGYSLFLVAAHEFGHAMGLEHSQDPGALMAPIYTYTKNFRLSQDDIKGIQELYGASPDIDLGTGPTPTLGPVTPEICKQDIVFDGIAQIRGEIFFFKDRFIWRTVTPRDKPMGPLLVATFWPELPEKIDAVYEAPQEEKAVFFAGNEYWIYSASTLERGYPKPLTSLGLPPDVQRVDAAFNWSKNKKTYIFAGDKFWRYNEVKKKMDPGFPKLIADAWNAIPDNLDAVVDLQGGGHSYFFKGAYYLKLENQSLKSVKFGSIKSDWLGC
Description: as §1

HDAC-3 = biological target: T2, HDAC-3 (Homo sapiens, UniProt O15379); test: HDAC-3 inhibitor screening kit; assay type: biochemical
T2 construct: purchased Sigma-Aldrich (Saint Louis, MO)
Description: as §1

LasB = LasB (Pseudomonas aeruginosa, UniProt Q02RJ6); conditions: vs 4-OMe analogue
MMP-14 = MMP-14 (Homo sapiens, UniProt P50281); test: MMP-14 off-target inhibition; assay type: biochemical
Description: as §1

TACE (ADAM-17) = biological target: T3, TACE (ADAM-17) (Homo sapiens, UniProt P78536); test: TACE inhibitor screening kit; assay type: biochemical
T3 construct: purchased Sigma-Aldrich (Saint Louis, MO)
Description: as §1

[2] = system: C. histolyticum strain DSM 1126; test: Bacterial growth inhibition assay (MIC) C. histolyticum; assay type: cell-based, Clostridium histolyticum; conditions: strain DSM 1126, BHI medium, 48 h anaerobic
MMP-7 = biological target: T4, MMP-7 (Homo sapiens, UniProt P09237); test: MMP-7 off-target inhibition; assay type: biochemical; conditions: read-out: MMP-7 % inhibition @ 100 μM; 100 μM compound
T4 sequence (P09237 95-267): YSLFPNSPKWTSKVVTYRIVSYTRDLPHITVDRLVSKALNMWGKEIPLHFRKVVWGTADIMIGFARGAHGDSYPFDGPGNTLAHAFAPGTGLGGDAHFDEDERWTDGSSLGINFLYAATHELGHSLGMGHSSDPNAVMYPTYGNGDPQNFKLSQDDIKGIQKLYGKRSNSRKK
Description: as §1

MMP-8 = MMP-8 (Homo sapiens, UniProt P22894); test: MMP-8 off-target inhibition; assay type: biochemical
Description: as §1

MMP-8, sequence (P22894 101-467): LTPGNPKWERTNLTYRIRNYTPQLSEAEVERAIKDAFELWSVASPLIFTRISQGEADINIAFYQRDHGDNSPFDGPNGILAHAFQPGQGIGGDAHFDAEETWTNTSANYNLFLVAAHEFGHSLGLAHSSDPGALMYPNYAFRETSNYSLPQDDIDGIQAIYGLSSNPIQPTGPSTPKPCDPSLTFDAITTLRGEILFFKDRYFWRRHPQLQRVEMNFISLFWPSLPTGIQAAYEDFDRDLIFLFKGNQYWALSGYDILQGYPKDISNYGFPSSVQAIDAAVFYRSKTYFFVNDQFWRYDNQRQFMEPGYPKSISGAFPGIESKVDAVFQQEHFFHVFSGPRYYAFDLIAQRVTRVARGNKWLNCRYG
LasB, sequence (Q02RJ6 198-498): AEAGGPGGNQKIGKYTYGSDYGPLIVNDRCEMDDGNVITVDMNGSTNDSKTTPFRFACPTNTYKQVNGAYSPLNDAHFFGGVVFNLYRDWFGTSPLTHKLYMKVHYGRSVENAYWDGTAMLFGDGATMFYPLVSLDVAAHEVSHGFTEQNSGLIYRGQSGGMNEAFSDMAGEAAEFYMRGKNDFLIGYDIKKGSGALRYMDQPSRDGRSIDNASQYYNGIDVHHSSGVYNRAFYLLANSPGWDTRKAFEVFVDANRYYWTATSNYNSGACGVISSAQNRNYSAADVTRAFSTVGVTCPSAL
T3 sequence (P78536 215-824): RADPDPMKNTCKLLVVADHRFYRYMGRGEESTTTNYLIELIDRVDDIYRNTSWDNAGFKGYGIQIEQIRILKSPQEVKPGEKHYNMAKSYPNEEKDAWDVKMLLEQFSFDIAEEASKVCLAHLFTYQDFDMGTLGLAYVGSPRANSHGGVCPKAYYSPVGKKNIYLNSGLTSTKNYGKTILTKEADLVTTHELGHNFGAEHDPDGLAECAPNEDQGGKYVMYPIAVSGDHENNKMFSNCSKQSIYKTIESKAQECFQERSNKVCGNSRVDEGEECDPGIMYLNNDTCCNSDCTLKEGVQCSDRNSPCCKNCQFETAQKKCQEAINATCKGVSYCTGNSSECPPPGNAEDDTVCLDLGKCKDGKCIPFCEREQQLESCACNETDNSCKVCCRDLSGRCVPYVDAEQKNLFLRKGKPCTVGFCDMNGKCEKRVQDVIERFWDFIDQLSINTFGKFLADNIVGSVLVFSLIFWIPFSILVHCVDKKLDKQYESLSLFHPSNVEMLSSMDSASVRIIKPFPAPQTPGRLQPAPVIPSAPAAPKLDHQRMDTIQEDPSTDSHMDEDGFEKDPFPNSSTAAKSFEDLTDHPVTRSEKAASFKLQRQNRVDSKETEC
collagenase unit of ColG (ColG-CU), sequence (Q9X721 111-786): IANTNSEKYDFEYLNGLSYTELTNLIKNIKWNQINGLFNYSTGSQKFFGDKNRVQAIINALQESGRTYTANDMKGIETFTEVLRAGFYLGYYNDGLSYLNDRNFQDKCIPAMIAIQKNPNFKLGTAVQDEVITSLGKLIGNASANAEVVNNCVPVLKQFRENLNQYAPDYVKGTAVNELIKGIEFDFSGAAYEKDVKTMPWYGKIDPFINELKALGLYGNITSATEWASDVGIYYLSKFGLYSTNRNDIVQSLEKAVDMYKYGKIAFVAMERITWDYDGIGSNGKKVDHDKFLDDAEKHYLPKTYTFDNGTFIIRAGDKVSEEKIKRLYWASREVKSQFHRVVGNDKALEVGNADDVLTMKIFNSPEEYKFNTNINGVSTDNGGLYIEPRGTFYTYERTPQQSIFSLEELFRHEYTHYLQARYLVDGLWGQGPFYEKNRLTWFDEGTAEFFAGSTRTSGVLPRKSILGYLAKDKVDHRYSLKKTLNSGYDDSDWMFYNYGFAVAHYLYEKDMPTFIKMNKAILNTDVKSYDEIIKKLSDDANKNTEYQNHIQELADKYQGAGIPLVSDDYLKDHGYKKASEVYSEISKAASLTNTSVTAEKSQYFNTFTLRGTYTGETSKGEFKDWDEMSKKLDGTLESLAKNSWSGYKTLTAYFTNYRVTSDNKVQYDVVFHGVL
MMP-3, sequence (P08254 100-477): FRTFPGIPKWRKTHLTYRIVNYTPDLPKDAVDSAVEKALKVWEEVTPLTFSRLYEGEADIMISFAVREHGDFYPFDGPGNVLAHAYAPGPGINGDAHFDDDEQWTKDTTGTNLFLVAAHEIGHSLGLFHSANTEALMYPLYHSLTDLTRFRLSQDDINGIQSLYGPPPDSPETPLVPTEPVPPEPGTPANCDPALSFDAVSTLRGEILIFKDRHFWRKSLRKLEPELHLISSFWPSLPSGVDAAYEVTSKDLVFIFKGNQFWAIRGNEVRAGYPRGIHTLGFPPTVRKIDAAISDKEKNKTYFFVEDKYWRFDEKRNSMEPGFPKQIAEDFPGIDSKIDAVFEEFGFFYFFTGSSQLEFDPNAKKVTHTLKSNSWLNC
T2 sequence (O15379 whole entry): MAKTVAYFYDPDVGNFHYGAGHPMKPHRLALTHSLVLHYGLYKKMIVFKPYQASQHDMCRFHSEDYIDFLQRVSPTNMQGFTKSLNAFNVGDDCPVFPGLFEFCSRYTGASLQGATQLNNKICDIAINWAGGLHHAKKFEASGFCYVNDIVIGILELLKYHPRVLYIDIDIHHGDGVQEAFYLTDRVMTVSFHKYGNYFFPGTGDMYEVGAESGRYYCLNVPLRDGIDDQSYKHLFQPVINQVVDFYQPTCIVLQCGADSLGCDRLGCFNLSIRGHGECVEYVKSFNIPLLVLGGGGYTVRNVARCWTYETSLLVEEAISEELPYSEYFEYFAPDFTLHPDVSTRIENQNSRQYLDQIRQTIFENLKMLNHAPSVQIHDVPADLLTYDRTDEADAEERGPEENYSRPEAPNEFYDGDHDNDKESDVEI
T2 sequence (Q9Y618 395-489 partner limits assumed): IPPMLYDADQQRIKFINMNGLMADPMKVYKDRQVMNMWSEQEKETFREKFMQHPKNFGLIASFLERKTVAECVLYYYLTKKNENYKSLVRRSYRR

CC(=O)c1ccc(N2C(=O)CC(S)C2=O)cc1 (stereo not drawn) [Compound 25, 1-(4-Acetylphenyl)-3-mercaptopyrrolidine-2,5-dione]
inhibition at 100 µM (MMP-3): < 10%
IC50 (in vitro): > 100 µM
inhibition at 100 µM [1]: 100 ± 2%
inhibition at 50 µM (MMP-2; 50 µM compound, read-out: MMP-2 % inh @50µM): < 10%
inhibition at 100 µM (MMP-2; read-out: MMP-2 % inhibition @ 100 μM, 100 μM compound): 14 ± 4%
IC50 (HDAC-3): > 100 µM
times more active on LasB than its methoxy-analogue (LasB): 1.7 times
inhibition at 50 µM (MMP-14; 50 µM compound, read-out: MMP-14 % inh @50µM): < 10%
inhibition at 100 µM (MMP-14; read-out: MMP-14 % inhibition @ 100 μM, 100 μM compound): 84 ± 8%
IC50 (TACE (ADAM-17)): 3.4 ± 1.2 µM
MIC ([2]; Hathewaya histolytica, DSM1126): > 100 µM
MIC [2]: >100 µM
inhibition at 100 µM (MMP-7): < 10%
inhibition at 50 µM (MMP-8; 50 µM compound, read-out: MMP-8 % inh @50µM): < 10%
inhibition at 100 µM (MMP-8; read-out: MMP-8 % inhibition @ 100 μM, 100 μM compound): 94 ± 1%
